In patent publication US20260132103A1, “Bumetanide Derivatives for the Therapy of Stroke and Other Neurological Diseases/Disorders Involving NKCCs” (University of Pittsburgh - Of the Commonwealth System of …, priority 2018, published 2026):

Key:
[1] = tested on: transient focal cerebral ischemia (tMCAO) in mice; assay: Adhesive tape removal test after tMCAO; assay type: in vivo, mouse; conditions: days not given (tests on days 1-14); for adhesive tape removal time, last value of the span: end of the span 'x to y'; for adhesive tape removal time, first value of the given span: start of the span 'x to y'
Text: FIGS. 2A-2D: Efficacy of NKCC1 inhibitors on improving neurological function in mice after tMCAO (see Example 3). (A) Neurological score, (B) corner test, (C) foot-fault test, and (D)-(E) adhesive tape test during 1-14 day after tMCAO. Data are mean±SD, n=4-9. *p<0.05 for DMSO vs STS66, **p<0.05 for DMSO vs STS5, ***p<0.05 for DMSO vs BMT, #p<0.05 for BMT vs STS66, ###p<0.05 for STS5 vs STS66.
Transient focal cerebral ischemia was induced in mice by intraluminal occlusion of the left middle cerebral artery (MCA) for 50 min as described previously (Chen H et al., 2005). Mice were anesthetized with 3% isoflurane in 70%: 30% N2O/O2 until they were unresponsive to the tail pinch test. Animals were then fitted with a nose cone blowing 1.5% isoflurane for anesthesia maintenance. The left common carotid artery was exposed and the occipital artery branches of the external carotid artery were isolated and coagulated. The internal carotid artery was isolated and the extracranial branch was dissected and ligated. A rubber silicon-coated monofilament suture (6-0) was introduced into the internal carotid artery lumen and gently advanced approximately 8-9 mm to block the MCA blood flow for 50 min. The rectal temperature was maintained at 37.0±0.5° C. during surgery through a temperature-controlled heating pad. Achievement of ischemia was confirmed by monitoring regional cerebral blood flow (rCBF) with laser speckle contrast imager (Pericam). For reperfusion, the suture was withdrawn after the MCAO. The incision was closed and the mouse recovered under a heating lamp to maintain the core temperature (36.0-37.0° C.) during the 30-60 min recovery period. After recovery, animals were returned to their cages with free access to food and water.
Vehicle: DMSO (2 ml/kg body weight/day), the NKCC1 inhibitor bumetanide (BMT, 10 mg/kg body weight/day in DMSO), bumetanide's prodrug STS5 (13 mg/kg body weight/day in DMSO), or the novel NKCC1 inhibitor STS66 according to the invention (12 mg/kg body weight/day in DMSO) was administered via intraperitoneal injection (i.p). The initial half dose of the drugs (BMT, STS5, STS66) was given at 3 h after the onset of reperfusion and the second half dose at 8 h reperfusion in the tMCAO model.
An adhesive tape removal test was used to measure somatosensory deficits. Two pieces of adhesive tape (4 mm×3 mm) were attached to the forepaws in an alternating sequence and with equal pressure by the experimenter before each trial. The removal time is defined as the time at which the animal removes the tape. The trial ended after the adhesive patch was removed or after 2 min had elapsed. Pre-operative training was carried twice per day for three days and were tested on day 1, 2, 3, 5, 7, 10 and 14 days after tMCAO (Bouet V, et al., 2009).

[2] = tested on: permanent focal cerebral ischemia (pdMCAO) in AngII-induced hypertensive mice; assay: Brain infarct volume and swelling after pdMCAO in AngII-induced hypertensive mice; assay type: in vivo, mouse; conditions: 24 h post-pdMCAO, i.p., half dose at 3 h and 8 h after pdMCAO
Method: FIG. 3: Effects of NKCC1 inhibitors against the worsened ischemic stroke in AngII-induced hypertensive mice after pdMCAO (see Example 3). (A) Experimental protocol in AngII-induced hypertensive C57/B6 mice. Permanent distal middle cerebral artery occlusion (pdMCAO) was induced in mice at day 14 post-AngII infusion. DMSO, BMT or STS66 was administered in mice via i.p. with the initial half dose at 3 h and the second half dose at 8 h after pdMCAO. (B) Representative TTC-stained mouse coronal brain sections at 2-8 mm posterior of the frontal pole were shown. TTC staining was performed at 24 h post pdMCAO. Scale: 5 mm. (C) Brain infarct volume was calculated. Data are mean±SD. Saline (n=4), AngII (n=5); *p<0.05 vs. saline control.
Permanent focal cerebral ischemia was induced by permanent occlusion of the distal middle cerebral artery (pdMCAO) in mice (Suenaga J, et al., 2015). Under anesthesia as described above, a skin incision at the midline of the neck was made. After being separated from the vagal nerve, the left CCA was exposed and occluded by ligation and the skin was sutured. Another skin incision (1 cm) was made between the left eye and the ear using fine operation scissors. The temporal muscle was identified and detached from the skull in its apical and dorsal part without totally removing the muscle by using the forceps. The MCA below the transparent skull in the rostral part of the temporal area, dorsal to the retro-orbital sinus was identified. If the MCA bifurcation is not visible (due to an anatomical normal variation), the vessel most rostral was identified. The skull above the MCA branch was thinned out with the drill until it has a thin and translucent texture. The artery, proximal and distal to the MCA bifurcation, was coagulated with the electrocoagulation forceps (in a bipolar mode at 7 W). The temporal muscle was relocated to its position and the burr hole was covered with wax and the skin wound was sutured and infiltrated with analgesia bupivacaine (100 μl 0.25%) topically. The animal was placed in a cage and monitored for recovery from anesthesia. […]
At 24 h post-reperfusion, mice were anesthetized with 5% isoflurane and then decapitated. […] Ischemic lesions were traced in each slice in a blinded manner, and the total volume of infarction was calculated with correction for edema, as described by Swanson et al., 1990 using ImageJ software. […] Brain swelling was determined with the following formula. […]
The efficacy of NKCC1 inhibitors was then tested in AngII-induced hypertensive mice after permanent MCAO model (pdMCAO), which is more clinically relevant to the majority ischemic stroke patients (McBride D W, et al., 2017). Brain infarct volume and swelling were measured at 24 h after pdMCAO. […]

How did the “adhesive tape removal time, last value of the span” value [1] turn out when `CCCCNc1cc(C(=O)O)cc(S(N)(=O)=O)c1Oc1ccccc1` [BMT, 3-(butylamino)-4-phenoxy-5-sulfamoylbenzoic acid, reference compound] was run?
The value was 17.4 ± 7.6 s.

What about the “adhesive tape removal time, first value of the given span” value [1] of the same compound?
Its value is 109.4 ± 10.8 s.

What about the “brain swelling (edema)” value [2] of the same compound?
The value was 7.1±1.1%.

What about the infarct volume [2] of the same compound?
Its infarct volume is 22.4±2.9 mm^3.

For `CCCCNc1cc(CNCC(F)(F)F)cc(S(N)(=O)=O)c1Oc1ccccc1` [STS66, 3-(Butylamino)-2-phenoxy-5-[(2,2,2-trifluoroethylamino)methyl]benzenesulfonamide], which “adhesive tape removal time, last value of the span” value [1] is on record?
Its value is 10.3 ± 5.2 s.

What about the “adhesive tape removal time, first value of the given span” value [1] of the same compound?
Its value is 29.7 ± 36.0 s.

What about the “brain swelling (edema)” value [2] of the same compound?
Its value is 2.4±1.1%.

And the infarct volume [2]?
The infarct volume was 13.3±2.5 mm^3.
